Measurements as given in patent publication US12409129B2, “Skin care composition” (BEIERSDORF AG, priority 2019, dated 2025).

How the values were obtained:
C. acnes strain K8 = experiment: Minimum inhibitory concentration (MIC) / compatibility of cosmetic excipients; format: cell-based, Cutibacterium acnes; settings: % w/vol, incubated anaerobically 3 days at 37° C, growth scored visually
Protocol: (§1) In microbiology, the MIC is the lowest concentration of a chemical which prevents visible growth of bacterium. The resulted MIC value depends both on the microorganism and the test compound. The MIC is determined by preparing concentrations series of the test compound in vitro, incubating the solutions with the separate batches of cultured bacteria, and measuring the results using agar dilution or broth microdilution. For the experiments with C. acnes strains C3 and K8, media comprising yeast extract soy peptone and dextrose were used. The MIC is determined by turbidity.
(§2) A total of 125 cosmetic excipients were tested for their compatibility with C. acnes strains C3 and K8. Hydrophilic compounds were tested in a 96-well plate liquid broth format, poorly soluble compounds were pre-dissolved in DMSO before dilution in liquid broth and hydrophobic or solid compounds were tested in an agar well diffusion test assay. The different dilutions of the test excipients in media were prepared in Falcon tubes and then distributed in a deep well plate using a multistepper. Each well received 1.2 ml and was subsequently inoculated with 120 μl of C. acnes bacteria suspension (strain C3 and K8). From the deep well plate 200 μl were transferred in each well of a clear 96 well replicate plate. The leftover was discarded. The plates were then incubated anaerobically for 3 days at 37° C. Following incubation, the test plates were visually examined and wells were scored for growth or complete growth inhibition to define the minimum inhibitory concentration.
(§3) These excipients are listed in the below table with their compatibility values for C. acnes strains C3 and K8. The compatibility values represent the MIC value of the listed ingredients with the tested C. acnes strains. At this concentration [% w/vol] the tested compound starts interfering with the growth of the tested strains. The compounds can be used in formulations at concentrations below this concentration.

C. acnes strain C3 = experiment: as above; format: cell-based, Cutibacterium acnes; settings: % w/vol, incubated anaerobically 3 days at 37° C, growth scored visually
Protocol: as §1, §2, §3

| Compound | COMPATABILITY VALUE K8 [%] (MIC value) (C. acnes strain K8) | COMPATABILITY VALUE C3 [%] (MIC value) (C. acnes strain C3) |
| --- | --- | --- |
| CCO [ethanol] | 3.75 | 3.75 |
| CC(=O)Oc1c(C)c(C)c2c(c1C)CCC(C)(CCC[C@H](C)CCC[C@H](C)CCCC(C)C)O2 (some centres unmarked) [tocopheryl acetate] | 1.00 | 1.00 |
| CCCCCCC(O)CO (centres unmarked) [caprylyl glycol] | 0.18 | 0.18 |
| CC(CO)CO [methylpropanediol] | 4.00 | 4.00 |
| ethylhexyl cocoate | 10.00 | 10.00 |
| tocopherol | 1.50 | 1.50 |
| O=C(O)CC(O)(CC(=O)O)C(=O)O [citric acid] | 0.08 | 0.33 |
